Source: ChEMBL document CHEMBL3352227, “Synthesis, antimycobacterial and antibacterial evaluation of l-[(1R, 2S)-2-fluorocyclopropyl]fluoroquinolone derivatives containing an oxime functional moiety” (Eur J Med Chem, 2014)
Converted amounts (≈) assume the structure as drawn.

Key:
Type in all cases: functional
[1] = system: Mycobacterium tuberculosis; assay: Antimycobacterial activity against Mycobacterium tuberculosis H37Rv ATCC 27294 by MABA method
[2] = system: Escherichia coli; assay: Antibacterial activity against Escherichia coli ATCC 25922 after 18 to 24 hrs by standard twofold serial dilution method
[3] = system: Escherichia coli; assay: Antibacterial activity against Escherichia coli 12-1 after 18 to 24 hrs by standard twofold serial dilution method
[4] = system: Escherichia coli; assay: Antibacterial activity against extended-spectrum beta-lactamase producing Escherichia coli 12-2 after 18 to 24 hrs by standard twofold serial dilution method
[5] = system: Escherichia coli; assay: Antibacterial activity against extended-spectrum beta-lactamase producing Escherichia coli 12-3 after 18 to 24 hrs by standard twofold serial dilution method
[6] = system: Escherichia coli; assay: Antibacterial activity against extended-spectrum beta-lactamase producing Escherichia coli 12-14 after 18 to 24 hrs by standard twofold serial dilution method
[7] = system: Escherichia coli; assay: Antibacterial activity against extended-spectrum beta-lactamase producing Escherichia coli 12-15 after 18 to 24 hrs by standard twofold serial dilution method
[8] = system: Klebsiella pneumoniae; assay: Antibacterial activity against Klebsiella pneumoniae 12-1 after 18 to 24 hrs by standard twofold serial dilution method
[9] = system: Klebsiella pneumoniae; assay: Antibacterial activity against Klebsiella pneumoniae 12-2 after 18 to 24 hrs by standard twofold serial dilution method
[10] = system: Klebsiella pneumoniae; assay: Antibacterial activity against Klebsiella pneumoniae 12-4 after 18 to 24 hrs by standard twofold serial dilution method
[11] = system: Klebsiella pneumoniae; assay: Antibacterial activity against extended-spectrum beta-lactamase producin Klebsiella pneumoniae 12-3 after 18 to 24 hrs by standard twofold serial dilution method
[12] = system: Klebsiella pneumoniae; assay: Antibacterial activity against extended-spectrum beta-lactamase producin Klebsiella pneumoniae 12-4 after 18 to 24 hrs by standard twofold serial dilution method
[13] = system: Klebsiella pneumoniae; assay: Antibacterial activity against extended-spectrum beta-lactamase producin Klebsiella pneumoniae 12-7 after 18 to 24 hrs by standard twofold serial dilution method
[14] = system: Klebsiella pneumoniae; assay: Antibacterial activity against extended-spectrum beta-lactamase producin Klebsiella pneumoniae 12-14 after 18 to 24 hrs by standard twofold serial dilution method
[15] = system: Pseudomonas aeruginosa; assay: Antibacterial activity against Pseudomonas aeruginosa 12-12 after 18 to 24 hrs by standard twofold serial dilution method
[16] = system: Pseudomonas aeruginosa; assay: Antibacterial activity against Pseudomonas aeruginosa 12-14 after 18 to 24 hrs by standard twofold serial dilution method
[17] = system: Staphylococcus aureus; assay: Antibacterial activity against Staphylococcus aureus ATCC 25923 after 18 to 24 hrs by standard twofold serial dilution method
[18] = system: Staphylococcus aureus; assay: Antibacterial activity against methicillin-sensitive Staphylococcus aureus 12-1 after 18 to 24 hrs by standard twofold serial dilution method
[19] = system: Staphylococcus aureus; assay: Antibacterial activity against methicillin-sensitive Staphylococcus aureus 12-2 after 18 to 24 hrs by standard twofold serial dilution method
[20] = system: Staphylococcus aureus; assay: Antibacterial activity against methicillin-sensitive Staphylococcus aureus 12-4 after 18 to 24 hrs by standard twofold serial dilution method
[21] = system: Staphylococcus aureus; assay: Antibacterial activity against methicillin-sensitive Staphylococcus aureus 12-5 after 18 to 24 hrs by standard twofold serial dilution method
[22] = system: Staphylococcus aureus; assay: Antibacterial activity against methicillin-resistant Staphylococcus aureus 12-2 after 18 to 24 hrs by standard twofold serial dilution method
[23] = system: Staphylococcus aureus; assay: Antibacterial activity against methicillin-resistant Staphylococcus aureus 12-4 after 18 to 24 hrs by standard twofold serial dilution method
[24] = system: Staphylococcus aureus; assay: Antibacterial activity against methicillin-resistant Staphylococcus aureus 12-5 after 18 to 24 hrs by standard twofold serial dilution method
[25] = system: Staphylococcus epidermidis; assay: Antibacterial activity against methicillin-sensitive Staphylococcus epidermidis 12-1 after 18 to 24 hrs by standard twofold serial dilution method
[26] = system: Staphylococcus epidermidis; assay: Antibacterial activity against methicillin-sensitive Staphylococcus epidermidis 12-3 after 18 to 24 hrs by standard twofold serial dilution method
[27] = system: Staphylococcus epidermidis; assay: Antibacterial activity against methicillin-sensitive Staphylococcus epidermidis 12-6 after 18 to 24 hrs by standard twofold serial dilution method
[28] = system: Staphylococcus epidermidis; assay: Antibacterial activity against methicillin-sensitive Staphylococcus epidermidis 12-8 after 18 to 24 hrs by standard twofold serial dilution method
[29] = system: Staphylococcus epidermidis; assay: Antibacterial activity against methicillin-resistant Staphylococcus epidermidis 12-1 after 18 to 24 hrs by standard twofold serial dilution method
[30] = system: Staphylococcus epidermidis; assay: Antibacterial activity against methicillin-resistant Staphylococcus epidermidis 12-6 after 18 to 24 hrs by standard twofold serial dilution method
[31] = system: Streptococcus pneumoniae; assay: Antibacterial activity against Streptococcus pneumoniae ATCC 49619 after 18 to 24 hrs by standard twofold serial dilution method
[32] = system: Streptococcus pneumoniae; assay: Antibacterial activity against Streptococcus pneumoniae 12-18 after 18 to 24 hrs by standard twofold serial dilution method

CCO/N=C1/CN(c2c(F)cc3c(=O)c(C(=O)O)cn([C@@H]4C[C@@H]4F)c3c2Cl)CC1CN (some centres undefined)
MIC [1]: 4 µg/mL (≈ 8.79 µM) | MIC [2]: 0.5 µg/mL (≈ 1.1 µM) | MIC [3]: 2 µg/mL (≈ 4.4 µM) | MIC [4]: 128 µg/mL (≈ 281 µM) | MIC [5]: 32 µg/mL (≈ 70.4 µM) | MIC [6]: 128 µg/mL (≈ 281 µM) | MIC [7]: > 128 µg/mL | MIC [8]: 0.5 µg/mL (≈ 1.1 µM) | MIC [9]: 1 µg/mL (≈ 2.2 µM) | MIC [10]: 1 µg/mL (≈ 2.2 µM) | MIC [11]: 32 µg/mL (≈ 70.4 µM) | MIC [12]: 32 µg/mL (≈ 70.4 µM) | MIC [13]: 4 µg/mL (≈ 8.79 µM) | MIC [14]: 64 µg/mL (≈ 141 µM) | MIC [15]: 4 µg/mL (≈ 8.79 µM) | MIC [16]: 32 µg/mL (≈ 70.4 µM) | MIC [17]: 0.5 µg/mL (≈ 1.1 µM) | MIC [18]: 0.25 µg/mL (≈ 0.55 µM) | MIC [19]: 0.125 µg/mL (≈ 0.275 µM) | MIC [20]: 0.25 µg/mL (≈ 0.55 µM) | MIC [21]: 0.25 µg/mL (≈ 0.55 µM) | MIC [22]: 16 µg/mL (≈ 35.2 µM) | MIC [23]: 16 µg/mL (≈ 35.2 µM) | MIC [24]: 16 µg/mL (≈ 35.2 µM) | MIC [25]: 0.5 µg/mL (≈ 1.1 µM) | MIC [26]: 1 µg/mL (≈ 2.2 µM) | MIC [27]: 0.25 µg/mL (≈ 0.55 µM) | MIC [28]: 2 µg/mL (≈ 4.4 µM) | MIC [29]: 4 µg/mL (≈ 8.79 µM) | MIC [30]: 16 µg/mL (≈ 35.2 µM) | MIC [31]: 1 µg/mL (≈ 2.2 µM) | MIC [32]: 4 µg/mL (≈ 8.79 µM)

CO/N=C1/CCN(c2c(F)cc3c(=O)c(C(=O)O)cn([C@@H]4C[C@@H]4F)c3c2Cl)CC1N (some centres undefined)
MIC [1]: 16 µg/mL (≈ 36.3 µM) | MIC [2]: 1 µg/mL (≈ 2.27 µM) | MIC [3]: 2 µg/mL (≈ 4.54 µM) | MIC [4]: > 128 µg/mL | MIC [5]: 32 µg/mL (≈ 72.6 µM) | MIC [6]: > 128 µg/mL | MIC [7]: > 128 µg/mL | MIC [8]: 2 µg/mL (≈ 4.54 µM) | MIC [9]: 2 µg/mL (≈ 4.54 µM) | MIC [10]: 1 µg/mL (≈ 2.27 µM) | MIC [11]: > 128 µg/mL | MIC [12]: 32 µg/mL (≈ 72.6 µM) | MIC [13]: 16 µg/mL (≈ 36.3 µM) | MIC [14]: > 128 µg/mL | MIC [15]: 16 µg/mL (≈ 36.3 µM) | MIC [16]: 128 µg/mL (≈ 290 µM) | MIC [17]: 1 µg/mL (≈ 2.27 µM) | MIC [18]: 0.25 µg/mL (≈ 0.567 µM) | MIC [19]: 0.25 µg/mL (≈ 0.567 µM) | MIC [20]: 0.25 µg/mL (≈ 0.567 µM) | MIC [21]: 0.25 µg/mL (≈ 0.567 µM) | MIC [22]: 32 µg/mL (≈ 72.6 µM) | MIC [23]: 64 µg/mL (≈ 145 µM) | MIC [24]: 32 µg/mL (≈ 72.6 µM) | MIC [25]: 0.5 µg/mL (≈ 1.13 µM) | MIC [26]: 1 µg/mL (≈ 2.27 µM) | MIC [27]: 0.5 µg/mL (≈ 1.13 µM) | MIC [28]: 4 µg/mL (≈ 9.07 µM) | MIC [29]: 16 µg/mL (≈ 36.3 µM) | MIC [30]: 32 µg/mL (≈ 72.6 µM) | MIC [31]: 1 µg/mL (≈ 2.27 µM) | MIC [32]: 8 µg/mL (≈ 18.1 µM)
